From ChEMBL document CHEMBL3600322, “Phenoxymethyl 1,3-oxazoles and 1,2,4-oxadiazoles as potent and selective agonists of free fatty acid receptor 1 (GPR40)” (Bioorg Med Chem Lett, 2015)
In brackets after ≈: the same amount, converted by molar mass.

Legend:
[1] = biological target: T1, Free fatty acid receptor 1 (Homo sapiens, UniProt O14842); test: Agonist activity at GPR40 (unknown origin) expressed in CHO cells at 5 uM by FLIPR calcium flux assay relative to GW9508; assay type: functional, cell-based
[2] = biological target: T1, Free fatty acid receptor 1; test: Agonist activity at GPR40 (unknown origin) expressed in CHO cells by FLIPR calcium flux assay in presence of 0.1% bovine serum albumin; assay type: functional, cell-based
CYP2C19 [3] = biological target: T2, CYP2C19 (Homo sapiens, UniProt P33261); test: Inhibition of CYP2C19 (unknown origin) at 24 uM by luminescent readout-based method; assay type: ADME
[4] = biological target: T3, Free fatty acid receptor 2 (Homo sapiens, UniProt O15552); test: Agonist activity at GPR43 (unknown origin) expressed in CHO cells by FLIPR calcium flux assay in presence of 0.1% bovine serum albumin; assay type: functional, cell-based
T3 sequence (O15552 whole entry): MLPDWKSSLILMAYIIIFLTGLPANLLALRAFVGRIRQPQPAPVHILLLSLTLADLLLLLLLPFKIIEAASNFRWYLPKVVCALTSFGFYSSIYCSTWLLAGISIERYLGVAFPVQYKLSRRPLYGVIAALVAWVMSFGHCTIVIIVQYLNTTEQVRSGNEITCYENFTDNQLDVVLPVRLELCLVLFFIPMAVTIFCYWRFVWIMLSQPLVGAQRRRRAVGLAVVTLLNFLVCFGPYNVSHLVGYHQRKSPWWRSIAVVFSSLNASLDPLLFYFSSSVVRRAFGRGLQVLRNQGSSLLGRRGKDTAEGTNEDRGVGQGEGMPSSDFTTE

[5] = Half life in BALB/c mouse liver microsomes at 2 uM by HPLC-MS analysis; assay type: ADME
CYP3A4 = CYP3A4 (Homo sapiens, UniProt P08684); test: Inhibition of CYP3A4 (unknown origin) at 5 uM by luminescent readout-based method; assay type: ADME
CYP2C9 [6] = biological target: T4, CYP2C9 (Homo sapiens, UniProt P11712); test: Inhibition of CYP2C9 (unknown origin) at 5 uM by luminescent readout-based method; assay type: ADME
CYP2C19 [7] = biological target: T2, CYP2C19; test: Inhibition of CYP2C19 (unknown origin) at 5 uM by luminescent readout-based method; assay type: ADME
CYP2D6 [8] = biological target: T5, CYP2D6 (Homo sapiens, UniProt P10635); test: Inhibition of CYP2D6 (unknown origin) at 5 uM by luminescent readout-based method; assay type: ADME
[9] = Plasma protein binding in human at 1 uM after 5 hrs by HPLC-MS/MS analysis; assay type: ADME, cell-free; details: read-out: PPB (converted)
[10] = biological target: T6, Free fatty acid receptor 3 (Homo sapiens, UniProt O14843); test: Agonist activity at GPR41 (unknown origin) expressed in CHO cells by FLIPR calcium flux assay in presence of 0.1% bovine serum albumin; assay type: functional, cell-based
T6 sequence (O14843 whole entry): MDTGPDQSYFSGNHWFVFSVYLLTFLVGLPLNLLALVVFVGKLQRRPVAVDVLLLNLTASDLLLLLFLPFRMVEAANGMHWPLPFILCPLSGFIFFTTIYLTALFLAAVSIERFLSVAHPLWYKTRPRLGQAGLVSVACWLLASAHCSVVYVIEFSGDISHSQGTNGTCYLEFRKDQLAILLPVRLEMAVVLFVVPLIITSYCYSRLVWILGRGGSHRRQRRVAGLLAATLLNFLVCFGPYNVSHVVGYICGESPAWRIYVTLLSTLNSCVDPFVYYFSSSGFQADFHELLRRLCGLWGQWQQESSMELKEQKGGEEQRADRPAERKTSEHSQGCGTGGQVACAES

CYP1A2 = biological target: T7, CYP1A2 (Homo sapiens, UniProt P05177); test: Inhibition of CYP1A2 (unknown origin) at 5 uM by luminescent readout-based method; assay type: ADME
T7 sequence (P05177 whole entry): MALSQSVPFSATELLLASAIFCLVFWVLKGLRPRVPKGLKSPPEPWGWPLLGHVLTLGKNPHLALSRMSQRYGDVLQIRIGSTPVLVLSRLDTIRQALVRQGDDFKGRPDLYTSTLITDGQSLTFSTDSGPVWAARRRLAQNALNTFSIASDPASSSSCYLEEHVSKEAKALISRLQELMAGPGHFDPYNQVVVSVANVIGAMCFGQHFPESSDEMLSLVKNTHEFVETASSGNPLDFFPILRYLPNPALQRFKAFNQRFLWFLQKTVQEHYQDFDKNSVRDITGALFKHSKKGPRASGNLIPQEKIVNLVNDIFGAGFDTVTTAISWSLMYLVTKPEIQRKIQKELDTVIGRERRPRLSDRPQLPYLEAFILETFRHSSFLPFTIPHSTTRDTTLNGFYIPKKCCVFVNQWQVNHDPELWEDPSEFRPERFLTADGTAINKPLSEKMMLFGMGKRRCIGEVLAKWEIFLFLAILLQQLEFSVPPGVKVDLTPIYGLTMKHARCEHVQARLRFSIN

[11] = biological target: T8, Free fatty acid receptor 4 (Homo sapiens, UniProt Q5NUL3); test: Agonist activity at GPR120 (unknown origin) expressed in CHO cells by FLIPR calcium flux assay in presence of 0.1% bovine serum albumin; assay type: functional, cell-based
T8 sequence (Q5NUL3 whole entry): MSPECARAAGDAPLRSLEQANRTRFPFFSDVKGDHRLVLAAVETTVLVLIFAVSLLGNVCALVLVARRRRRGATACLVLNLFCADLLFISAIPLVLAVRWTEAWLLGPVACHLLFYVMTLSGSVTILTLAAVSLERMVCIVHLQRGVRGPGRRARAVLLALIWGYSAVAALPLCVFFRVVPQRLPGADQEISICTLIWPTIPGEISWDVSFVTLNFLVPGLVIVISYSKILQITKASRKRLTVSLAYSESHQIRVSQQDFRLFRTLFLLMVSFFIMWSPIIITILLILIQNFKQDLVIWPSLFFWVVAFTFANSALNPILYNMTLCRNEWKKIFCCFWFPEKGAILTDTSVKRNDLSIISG

[12] = Kinetic solubility of the compound in phosphate-buffered saline at pH 7.4 by filter microplate technique; assay type: physicochemical; details: read-out: Kinetic_solubility
[13] = Apparent permeability from apical to basolateral side in human Caco2 cells assessed […] at 10 uM by HPLC-MS analysis; assay type: ADME, cell-based; details: Caco-2
CYP2C9 [14] = biological target: T4, CYP2C9; test: Inhibition of CYP2C9 (unknown origin) at 120 uM by luminescent readout-based method; assay type: ADME
CYP2D6 [15] = biological target: T5, CYP2D6; test: Inhibition of CYP2D6 (unknown origin) at 1 uM by luminescent readout-based method

T5 sequence (P10635 whole entry): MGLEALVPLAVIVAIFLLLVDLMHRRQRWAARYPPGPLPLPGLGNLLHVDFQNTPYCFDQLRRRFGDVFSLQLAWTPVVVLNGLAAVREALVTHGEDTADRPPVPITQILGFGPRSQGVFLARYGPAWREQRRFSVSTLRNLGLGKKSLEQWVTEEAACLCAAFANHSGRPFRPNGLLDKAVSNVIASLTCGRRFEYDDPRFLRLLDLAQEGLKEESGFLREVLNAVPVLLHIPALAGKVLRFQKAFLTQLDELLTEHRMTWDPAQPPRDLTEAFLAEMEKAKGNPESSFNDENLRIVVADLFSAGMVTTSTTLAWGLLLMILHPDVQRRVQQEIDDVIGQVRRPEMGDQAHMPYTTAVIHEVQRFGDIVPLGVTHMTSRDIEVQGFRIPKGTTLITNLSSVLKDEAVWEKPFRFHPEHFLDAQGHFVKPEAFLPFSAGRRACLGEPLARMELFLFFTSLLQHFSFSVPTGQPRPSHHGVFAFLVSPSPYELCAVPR
Sequence of CYP3A4 (P08684 whole entry): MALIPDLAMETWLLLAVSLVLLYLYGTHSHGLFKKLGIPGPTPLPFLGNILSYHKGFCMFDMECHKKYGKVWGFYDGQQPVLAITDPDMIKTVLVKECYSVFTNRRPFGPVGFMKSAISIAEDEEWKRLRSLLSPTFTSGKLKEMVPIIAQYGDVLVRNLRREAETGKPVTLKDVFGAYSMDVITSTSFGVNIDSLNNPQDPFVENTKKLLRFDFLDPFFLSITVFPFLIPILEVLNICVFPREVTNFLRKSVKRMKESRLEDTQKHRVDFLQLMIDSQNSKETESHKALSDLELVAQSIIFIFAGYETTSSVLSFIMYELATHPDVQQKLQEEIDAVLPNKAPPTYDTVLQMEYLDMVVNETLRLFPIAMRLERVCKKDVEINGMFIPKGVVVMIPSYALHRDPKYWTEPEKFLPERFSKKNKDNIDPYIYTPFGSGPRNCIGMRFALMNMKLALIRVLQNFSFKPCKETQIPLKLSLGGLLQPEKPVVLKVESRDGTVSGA
T1 sequence (O14842 whole entry): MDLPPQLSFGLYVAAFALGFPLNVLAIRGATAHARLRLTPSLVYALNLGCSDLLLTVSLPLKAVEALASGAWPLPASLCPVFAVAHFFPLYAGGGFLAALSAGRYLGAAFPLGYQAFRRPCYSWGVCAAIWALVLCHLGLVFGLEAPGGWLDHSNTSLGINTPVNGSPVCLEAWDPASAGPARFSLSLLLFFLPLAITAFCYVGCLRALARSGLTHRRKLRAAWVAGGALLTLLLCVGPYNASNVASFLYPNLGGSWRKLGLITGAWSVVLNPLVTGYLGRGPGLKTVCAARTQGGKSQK
T2 sequence (P33261 whole entry): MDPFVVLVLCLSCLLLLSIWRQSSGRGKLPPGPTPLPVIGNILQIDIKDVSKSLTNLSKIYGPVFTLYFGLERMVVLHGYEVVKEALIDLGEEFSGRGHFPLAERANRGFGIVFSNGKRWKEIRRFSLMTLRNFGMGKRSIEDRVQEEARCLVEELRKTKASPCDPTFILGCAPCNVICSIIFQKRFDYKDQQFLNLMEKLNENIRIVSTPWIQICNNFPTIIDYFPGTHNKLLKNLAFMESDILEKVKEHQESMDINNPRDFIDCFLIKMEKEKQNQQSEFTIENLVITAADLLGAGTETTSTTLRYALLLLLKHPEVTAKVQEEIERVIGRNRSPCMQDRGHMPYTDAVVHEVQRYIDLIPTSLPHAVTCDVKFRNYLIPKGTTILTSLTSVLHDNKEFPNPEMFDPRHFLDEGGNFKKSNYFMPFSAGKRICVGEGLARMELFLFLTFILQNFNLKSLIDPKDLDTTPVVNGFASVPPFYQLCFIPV
T4 sequence (P11712 whole entry): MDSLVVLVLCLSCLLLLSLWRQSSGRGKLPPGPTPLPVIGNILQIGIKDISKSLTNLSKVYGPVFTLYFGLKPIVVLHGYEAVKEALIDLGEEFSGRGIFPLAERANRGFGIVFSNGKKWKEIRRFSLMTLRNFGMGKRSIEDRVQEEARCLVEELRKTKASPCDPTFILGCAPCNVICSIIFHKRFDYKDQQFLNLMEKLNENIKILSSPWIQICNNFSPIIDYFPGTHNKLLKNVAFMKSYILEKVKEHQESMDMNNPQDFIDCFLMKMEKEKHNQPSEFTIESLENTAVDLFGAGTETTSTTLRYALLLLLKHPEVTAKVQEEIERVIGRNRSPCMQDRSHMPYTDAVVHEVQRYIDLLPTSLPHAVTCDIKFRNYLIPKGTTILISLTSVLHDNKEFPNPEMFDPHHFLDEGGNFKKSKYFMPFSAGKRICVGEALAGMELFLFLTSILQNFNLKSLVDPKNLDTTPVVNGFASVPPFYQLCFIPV

| Structure (SMILES) | Efficacy [1] | EC50 [2] | other results |
| --- | --- | --- | --- |
| O=C(O)Cc1ccc(OCc2nc(-c3cccc(Cl)c3)no2)cc1 | 69% | 18800 nM | – |
| O=C(O)CCc1ccc(OCc2nc(-c3cccc(C(F)(F)F)c3)no2)c(Cl)c1 | 22% | 30100 nM | – |
| CC(Oc1ccc(CCC(=O)O)cc1)c1nc(-c2ccc(Cl)cc2)no1 (stereo unspecified) | 68% | 500 nM | – |
| O=C(O)CCc1ccc(OCc2coc(-c3cccc(F)c3)n2)cc1 | 99% | 560 nM | – |
| COc1ccc2[nH]c([S+]([O-])Cc3ncc(C)c(OC)c3C)nc2c1 (stereo unspecified) [OMEPRAZOLE] | – | – | inhibition at 24 µM (CYP2C19 [3]): 93.4% |
| Cc1ccc(-c2noc(COc3ccc(CCC(=O)O)cc3)n2)cc1 | 99% | 300 nM | EC50 [4]: > 10000 nM; half-life at 2 µM [5]: 6.22 h; inhibition at 5 µM (CYP3A4): 29.2%; inhibition at 5 µM (CYP2C9 [6]): 4.26%; inhibition at 5 µM (CYP2C19 [7]): 20.6%; inhibition at 5 µM (CYP2D6 [8]): -8.3%; fraction unbound at 5 h, 1 µM [9]: 0.015; EC50 [10]: > 10000 nM; inhibition at 5 µM (CYP1A2): 13.6%; EC50 [11]: > 10000 nM; solubility kinetic [12]: 334 µM (≈ 113 µg/mL); Papp A→B at 10 µM [13]: 27.3 ×10⁻⁶ cm/s |
| OC(Cn1cncn1)(Cn1cncn1)c1ccc(F)cc1F [FLUCONAZOLE] | – | – | inhibition at 120 µM (CYP2C9 [14]): 89.1% |
| O=C(O)CCc1ccc(OCc2nc(-c3ccco3)no2)cc1 | – | > 100000 nM | – |
| O=C(O)CCc1ccc(OCc2nc(-c3ccccc3Cl)no2)cc1 | 61% | 1200 nM | – |
| O=C(O)CCc1ccc(OCc2nc(-c3cccc(Br)c3)no2)cc1 | 130% | 1260 nM | – |
| COc1cccc(-c2noc(COc3ccc(CCC(=O)O)cc3Cl)n2)c1 | 88% | 3000 nM | – |
| O=C(O)CCc1ccc(OCc2nc(-c3cccs3)no2)cc1 | 59% | 2570 nM | – |
| CC(Oc1ccc(CCC(=O)O)cc1)c1nc(-c2ccccc2)no1 (stereo unspecified) | 109% | 2390 nM | – |
| O=C(O)CCc1ccc(OCc2ncc(-c3ccccc3)o2)cc1 | 58% | 1600 nM | – |
| O=C(O)CCc1ccc(OCc2nc(-c3ccccc3)no2)cc1 | 65% | 1130 nM | – |
| O=C(O)CCc1ccc(OCc2nc(-c3ccc(Cl)cc3)no2)cc1 | 84% | 540 nM | EC50 [4]: > 10000 nM; half-life at 2 µM [5]: 12.1 h; inhibition at 5 µM (CYP3A4): 50.1%; inhibition at 5 µM (CYP2C9 [6]): 16.2%; inhibition at 5 µM (CYP2C19 [7]): 31.6%; inhibition at 5 µM (CYP2D6 [8]): -5.8%; fraction unbound at 5 h, 1 µM [9]: 0.001; EC50 [10]: > 10000 nM; inhibition at 5 µM (CYP1A2): 25.9%; EC50 [11]: > 10000 nM; solubility kinetic [12]: 214 µM (≈ 76.8 µg/mL); Papp A→B at 10 µM [13]: 2.1 ×10⁻⁶ cm/s |

| Structure (SMILES) | Efficacy [1] | EC50 [2] | other results |
| --- | --- | --- | --- |
| Cc1cccc(-c2noc(COc3ccc(CCC(=O)O)cc3Cl)n2)c1 | 54% | 4580 nM | – |
| Cc1oc(-c2ccccc2)nc1COc1ccc(CCC(=O)O)cc1 | 103% | 58 nM | EC50 [4]: > 10000 nM; half-life at 2 µM [5]: 7.23 h; inhibition at 5 µM (CYP3A4): 36.2%; inhibition at 5 µM (CYP2C9 [6]): 10.8%; inhibition at 5 µM (CYP2C19 [7]): 23.6%; inhibition at 5 µM (CYP2D6 [8]): 17.7%; fraction unbound at 5 h, 1 µM [9]: 0.014; EC50 [10]: > 10000 nM; inhibition at 5 µM (CYP1A2): 8.9%; EC50 [11]: > 10000 nM; solubility kinetic [12]: 404 µM (≈ 136 µg/mL); Papp A→B at 10 µM [13]: 15.2 ×10⁻⁶ cm/s |
| O=C(O)CCc1ccc(OCc2nc(-c3cccc(C(F)(F)F)c3)no2)cc1 | 65% | 1110 nM | – |
| O=C(O)CCc1ccc(OCc2coc(-c3ccccc3)n2)cc1 | 98% | 700 nM | – |
| O=C(O)CCc1ccc(OCc2coc(-c3cccc(Cl)c3)n2)cc1 | 106% | 160 nM | – |
| O=C(O)CCc1ccc(OCc2nc(-c3ccccc3)no2)c(Cl)c1 | 95% | 13100 nM | – |
| O=C(O)CCc1ccc(OCc2noc(-c3ccccc3)n2)cc1 | 42% | 2650 nM | – |
| O=C(O)CCc1ccc(OCc2nc(-c3ccc(F)cc3)no2)cc1 | 66% | 680 nM | – |
| O=C(O)CCc1ccc(OCc2ncc(-c3cccc(F)c3)o2)cc1 | 81% | 1070 nM | – |
| C=C[C@H]1C[N@@]2CC[C@H]1C[C@@H]2[C@@H](O)c1ccnc2ccc(OC)cc12 [QUINIDINE] | – | – | inhibition at 1 µM (CYP2D6 [15]): 96.2% |
| CC(Oc1ccc(CCC(=O)O)cc1)c1nc(-c2cccs2)no1 (stereo unspecified) | 94% | 4000 nM | – |
| O=C(O)CCc1ccc(OCc2nc(-c3ccc(C(F)(F)F)cc3)no2)cc1 | 73% | 610 nM | – |
| Cc1cc(-c2noc(COc3ccc(CCC(=O)O)cc3)n2)ccc1F | 75% | 2120 nM | – |
| CCc1ccc(-c2noc(COc3ccc(CCC(=O)O)cc3)n2)cc1 | 106% | 210 nM | – |
| COc1cccc(-c2noc(COc3ccc(CCC(=O)O)cc3)n2)c1 | 81% | 2670 nM | – |
| O=C(O)CCc1ccc(OCc2ncc(-c3cccc(Cl)c3)o2)cc1 | 30% | 47500 nM | – |
